Assay results reported in patent publication US12599596B2, “Anti-tumor pharmaceutical composition based on immune checkpoint blockade and use thereof” (Shanghai Hui Tian Jin Ze Biotech Co., Ltd., priority 2023, dated 2026).
Structures can show the parent of a compound that is named as a salt.

Tests used:
[1] = tested on: MC38 colorectal cancer cells; assay: MC38 subcutaneous tumor model in C57BL/6 mice, Embodiment 2; type: in vivo; details: for Tumor volume: CBD 100 mg/kg, PAR 10 mg/kg, vitamin E 50 mg/kg, thymosin 2 mg/kg
Procedure: • 1. MC38 colorectal cancer cells were inoculated into 6-week-old female C57BL/6 mice (1×10^6 cells/mouse) to establish a subcutaneous tumor model. After the tumor volume reached 50 mm^3, the mice were grouped and administered according to the following pharmaceutical combinations: (1) control group (no administration), (2) anti-PD-1 ([…]/time) group, (3) anti-CTLA4 ([…]/time) group, (4) CBD (100 mg/kg) group, (5) CBD (100 mg/kg)+anti-CTLA4 ([…]/time) group, (6) PAR (10 mg/kg) group, (7) PAR (10 mg/kg)+anti-CTLA4 ([…]) group, (8) CBD (100 mg/kg)+PAR (10 mg/kg) group, (9) vitamin E(a-tocopherol) (50 mg/kg)+thymosin (2 mg/kg) group, (10) CBD (100 mg/kg)+vitamin E(α-tocopherol) (50 mg/kg)+thymosin (2 mg/kg) group, (11) PAR (10 mg/kg)+vitamin E(α-tocopherol) (50 mg/kg)+thymosin (2 mg/kg), (12) PAR (10 mg/kg)+CBD (100 mg/kg)+vitamin E(α-tocopherol) (50 mg/kg)+thymosin (2 mg/kg) group, (13) CBD (100 mg/kg)+vitamin E(α-tocopherol) (50 mg/kg)+thymosin (2 mg/kg)+anti-CTLA4 ([…]/time) group, (14) PAR (10 mg/kg)+vitamin E(α-tocopherol) (50 mg/kg)+thymosin (2 mg/kg)+anti-CTLA4 ([…]) group, and (15) CBD (100 mg/kg)+PAR (10 mg/kg)+vitamin E(α-tocopherol) (50 mg/kg)+thymosin (2 mg/kg)+anti-CTLA4 ([…]/time) group. The tumor weight and volume, and body weight of the mice were monitored once every 2 days. The tumor volume was calculated as follows: tumor volume (mm^3)=0.5×(length)x(width)^2. The mice were sacrificed 14 days after drug administration, and the tumors were dissected.
The dissolving mode of the pharmaceutical composition was as follows: the pharmaceutical composition was dissolved in 10% DMSO+corn oil, the mice were gavaged with the pharmaceutical composition at 100 pl/mouse, and the mice in the control group were injected with the same volume of the solvent. • 2. MC38 colorectal cancer cells were inoculated into 6-week-old female nude mice (1×10^6 cells/mouse) to establish a subcutaneous tumor model. After the tumor volume reached 50 mm^3, the mice were grouped and administered according to the following pharmaceutical combinations: (1) control group, (2) CBD (100 mg/kg)+vitamin E(α-tocopherol) (50 mg/kg)+thymosin (2 mg/kg) group, (3) PAR (10 mg/kg)+vitamin E(α-tocopherol) (50 mg/kg)+thymosin (2 mg/kg) group, and (4) PAR (10 mg/kg)+CBD (100 mg/kg)+vitamin E(α-tocopherol) (50 mg/kg)+thymosin (2 mg/kg) group. The tumor weight and volume, and the body weight of the mice were monitored once every 2 days. The tumor volume was calculated as follows: tumor volume (mm^3)=0.5×(length)x(width)^2. The mice were sacrificed 14 days after drug administration, and the tumors were dissected. (II) Experimental Results 1.

MC38 colon cancer cells = assay: MC38 subcutaneous tumor model in C57BL/6 mice, Embodiment 5; type: in vivo; details: for Tumor volume: CBD 100 mg/kg, PAR 5 mg/kg, vitamin E 50 mg/kg; for therapeutic / tumor inhibition effect in words: normal mice, Embodiment 5, comparison between groups
Procedure: MC38 colon cancer cells were inoculated into 6-week-old female C57BL/6 mice (1×10^6 cells/mouse) to establish a subcutaneous tumor model. After the tumor volume reached 50 mm^3, the mice were grouped and administered with the following pharmaceutical combinations: (1) control group (no drug administration), (2) anti-PD-1 ([…] per time) group, (3) vitamin E(α-tocopherol) (50 mg/kg) group, (4) CBD (100 mg/kg) group, (5) CBD (100 mg/kg)+vitamin E(α-tocopherol) (50 mg/kg) group, (6) PAR (5 mg/kg) group, (7) PAR (5 mg/kg)+vitamin E(α-tocopherol) (50 mg/kg) group, (8) CBD (100 mg/kg)+PAR (5 mg/kg) group, and (9) PAR (5 mg/kg)+CBD (100 mg/kg)+vitamin E(α-tocopherol) (50 mg/kg) group.
The tumor weight, tumor volume, and mouse body weight were monitored once every 2 days. The tumor volume was calculated as follows: tumor volume (mm^3)=0.5×(length)×(width)^2. The mice were sacrificed 14 days after drug administration, and the tumors were dissected.
The dissolving mode of the pharmaceutical composition was as follows: the pharmaceutical composition was dissolved in 10% DMSO+corn oil, the mice were gavaged with the pharmaceutical composition at 100 μl/mice, and the mice in the control group were injected with the same volume of the solvent.

PD-L1 in tumor cells = assay: Expression of PD-L1 in tumor cells with paroxetine hydrochloride; type: cell-based; details: no method or data given

Row | Compound | Tumor volume ([1]; Day 0) [mm^3] | Tumor volume ([1]; Day 2) [mm^3] | Tumor volume ([1]; Day 4) [mm^3] | Tumor volume ([1]; Day 6) [mm^3] | Tumor volume ([1]; Day 8) [mm^3] | Tumor volume ([1]; Day 10) [mm^3] | Tumor volume ([1]; Day 12) [mm^3] | Tumor volume ([1]; Day 14) [mm^3] | Tumor volume ([1]; Day 16) [mm^3] | therapeutic / tumor inhibition effect in words ([1]; normal mice, Embodiment 2, comparison between groups) | Tumor volume (MC38 colon cancer cells; Day 0) [mm^3] | Tumor volume (MC38 colon cancer cells; Day 4) [mm^3] | Tumor volume (MC38 colon cancer cells; Day 6) [mm^3] | Tumor volume (MC38 colon cancer cells; Day 8) [mm^3] | Tumor volume (MC38 colon cancer cells; Day 10) [mm^3] | Tumor volume (MC38 colon cancer cells; Day 12) [mm^3] | Tumor volume (MC38 colon cancer cells; Day 14) [mm^3] | Tumor volume (MC38 colon cancer cells; Day 16) [mm^3] | therapeutic / tumor inhibition effect in words (MC38 colon cancer cells) | expression of PD-L1 in tumor cells (PD-L1 in tumor cells)
1 | Fc1ccc([C@@H]2CCNC[C@H]2COc2ccc3c(c2)OCO3)cc1 [PAR, paroxetine hydrochloride] | 0 | 43.63 | 68.09 | 83.54 | 177.63 | 263.45 | 393.48 | 510.89 | 608.61 | equivalent therapeutic effects | 0 | 44.74 | 61.50 | 85.83 | 136.25 | 176.62 | 262.06 | 302.90 | equivalent therapeutic effects | reduces the expression of PD-L1
2 | Cc1c(C)c2c(c(C)c1O)CC[C@@](C)(CCC[C@H](C)CCC[C@H](C)CCCC(C)C)O2 [VE, a-tocopherol] |  |  |  |  |  |  |  |  |  |  | 0 | 58.77 | 124.89 | 191.75 | 284.59 | 459.67 | 532.81 | 624.47 | no significant therapeutic effect | 
